From patent publication US6180083A, “Tropane derivatives useable in particular for in vivo detection of dopamine transporters” (CIS bio International, priority 1996, dated 2001)
Where two headings read alike, the source gives them in different places.

How the values were obtained:
[1] = molecular target: dopamine transporter; test: in vitro competition with [^3 H]-GBR 12935 on brain membrane preparations; format: binding; settings: for Ki: read-out: Affinity: Ki (nM) Dopamine (DA); for Selectivity 5-HT/DA, Ki(5-HT):Ki(DA): [^3 H]paroxetine Ki over [^3 H]GBR Ki
Protocol: (§1) In this example, in vitro studies are conducted on brain membrane preparations.
(§2) These studies are competition studies between [^3 H]-GBR 12935 (dopamine transporter), [^3 H]-paroxetine (serotonin transporter), [^3 H]-nisoxetine (noradrenaline transporter) and the iodinated derivative of example 1 (PE21).
(§3) The inhibition constants Ki (nM) obtained with the compound of the invention PE21 in competition with the different ligands are given in table 4.
(§4) Med., 1996, 37, pages 1197-1202 for tests of the same type conducted with β-CIT and iodoaltropane described in WO-A-95/11901.

[2] = molecular target: dopamine transporter; settings: [^3 H]Win35428; document 10; read-out: Affinity: Ki (nM) Dopamine (DA); cited from earlier work
[3] = molecular target: serotonin transporter (Macaca fascicularis, UniProt A7KAX8); settings: read-out: Affinity: Ki (nM) Serotonin 5-HT; [^3 H]citalopram; document 10; cited from earlier work
[4] = tested on: dopamine transporter; test: in vivo brain biodistribution in the rat with preinjection of GBR 12909 (specific inhibitor of the dopamine transporter); set-up: species or system rat (male Wistar); settings: for fixation in the striatum prevented/inhibited by preinjection of GBR 12909: GBR 12909 5 mg/kg i.v. 30 min before, 2 hours after injection
Protocol: (§5) In this example, in vivo tests in the rat are used to study the affinity and specificity of the compound of example 1, hereinafter called PE21, for the dopamine transporter.
(§6) For this purpose 3 batches of male Wistar rats are used using 6 rats per batch. Batch number 1 is first given an intravenous injection of GBR 12909 (specific inhibitor of the dopamine transporter produced by RBI Bioblock) at a dose of 5 mg/kg, and 30 minutes later an injection of the compound of example 1 is given by intravenous route, at a dose of 8.10^-6 mg/kg.
(§7) Batch number 3, or the reference batch, only receives an intravenous injection of the compound of example 1.
(§8) 2 hours later, the animals are sacrificed and the doses of radioactivity in the cerebellum, striatum and frontal cortex tissues are determined.
(§9) The results obtained are given in FIG. 2 and are expressed as a % of the dose injected per gram of tissue.
(§10) In this figure, the columns in white relate to batch number 3 (reference), the shaded columns relate to batch number 1 which received GBR 12909 and the dotted columns relate to batch number 2 which received paroxetine.
(§11) In this example, the same operating mode as in example 14 is followed to conduct the same in vivo brain biodistribution study in the rat, but using the compound of the prior art β-CIT (3b-4-iodo[^125 I]phenyl)-tropan-2β-carboxylic acid methyl ester) instead of the compound of example 1.

[5] = molecular target: T1, noradrenaline transporter (Rattus norvegicus, UniProt Q63380); test: in vitro competition with [^3 H]-nisoxetine on brain membrane preparations; format: binding
T1 construct: in vitro studies are conducted on brain membrane preparations; from tissue; host or cells: brain membrane preparations
Protocol: as §1, §2, §3, §4

[6] = tested on: serotonin transporter; test: in vivo brain biodistribution in the rat with preinjection of paroxetine (specific inhibitor of the serotonin transporter); set-up: species or system rat (male Wistar); settings: for specificity for the dopamine transporter compared with the serotonin transporter in vivo: rat brain
Protocol: as §5
Batch number 2 first receives an injection of paroxetine (specific inhibitor of the serotonin transporter made by Beecham laboratories) at a dose of 5 mg/kg, and 30 minutes later an injection of the compound of example 1 is given under the same conditions as for batch number 1.
as §7, §8, §9, §10, §11

[7] = molecular target: T2, serotonin transporter (Rattus norvegicus, UniProt P31652); test: biochemical; format: binding
T2 construct: in vitro studies are conducted on brain membrane preparations; from tissue; host or cells: brain membrane preparations
Protocol: as §1, §4

[8] = tested on: dopamine transporter system; settings: prior art compound; source not stated; cited from earlier work
[9] = molecular target: T3, dopamine transporters (Rattus norvegicus, UniProt P23977); test: in vitro affinity of [^125 I]PE21 for dopamine transporters; format: binding
Protocol: The affinity of compound [^125 I)PE21 for dopamine transporters was also determined in vitro, and the following value was obtained: […]

[10] = biodistribution study in the rat, time course (cerebellum, striatum, frontal cortex); format: in vivo, rat (male Wistar); settings: for tissue uptake at 0.5 h / tissue uptake at 1 h / tissue uptake at 2 h / tissue uptake at 4 h: rat, iv, 8e-06 mg/kg; for tissue uptake at 0.5 h: 0.5 h post-injection; for tissue uptake at 1 h: 1 h post-injection; for tissue uptake at 2 h: 2 h post-injection; for tissue uptake at 4 h: 4 h post-injection
Protocol: as §6, §7, §8, §9
In this example, a biodistribution study in the rat is also conducted for the compound of example 1 following the same operating mode as in example 14, but sacrificing the animals at 1/2 hour, 1 hour or 4 hours after injection.
In this table, the results obtained in example 14 are also given.

[11] = tested on: dopaminergic cells; test: rat model of Parkinson's disease (unilateral 6-OHDA lesion of the nigrostriatal pathway), ex vivo autoradiography; format: in vivo, rat (Wistar); settings: 2 hours after 3.7 MBq i.v.
Protocol: In this example, the compound of example 1 PE21 was tested in the rat using a model of Parkinson's disease obtained with a unilateral lesion of the nigrostriatal pathway. For this purpose Wistar rats were unilaterally perfused in the substantia nigra with 8 μg of 6-OHDA(6-hydroxy dopamine).
Three weeks later, they were given an intravenous 3.7 MBq injection of [^125 I]PE21.
Two hours afterwards, the rats were sacrificed and their brains collected. The latter were frozen and coronal sections 20 μm thick were taken which were exposed on β-max hyperfilm for six weeks.
The striatum/frontal cortex ratios were calculated after analysis of the films. On the lesion side, an average ratio of 0.86±0.10 was observed, while this ratio was 7.20±0.91 on the intact side.

[12] = tested on: dopamine transporter system; test: kinetics study in vivo on the brain distribution in primates (SPECT, […]); set-up: species or system primates (Cynomologus female macaque); settings: words
Protocol: In this example, a kinetics study in vivo is made on the brain distribution of the compound of example 1 in primates (Cynomologus female macaque, 2 kg, anaesthetized with ketamine, with data acquisition made every 12 minutes on […]).

[13] = molecular target: T3, dopamine transporters; settings: document 11; cited from earlier work
[14] = molecular target: serotonin transporters; settings: document 11, page 320; cited from earlier work
[15] = molecular target: T3, dopamine transporters; test: affinity of IPT for dopamine transporters (document 11); format: binding; settings: from document 11 values
From the text: Therefore a specificity Kd(5-HT)/Kd(DA) of approximately 5 is obtained.
By way of comparison, the affinity of compound IPT for dopamine transporters described in document 11 corresponds to: […]

[16] = molecular target: dopamine transporter; test: competition with [^3 H]Win35428 (document 10); format: binding; settings: document 10 data
From the text: as §4

[17] = molecular target: dopamine transporter; settings: Bonnet and Constantin 1986; cited from earlier work
[18] = cerebellum, read-out: Cerebellum
[19] = frontal cortex, read-out: Frontal cortex (% injected dose/g tissue)
[20] = striatum, read-out: Striatum (% injected dose/g tissue)

T3 sequence (P23977 whole entry): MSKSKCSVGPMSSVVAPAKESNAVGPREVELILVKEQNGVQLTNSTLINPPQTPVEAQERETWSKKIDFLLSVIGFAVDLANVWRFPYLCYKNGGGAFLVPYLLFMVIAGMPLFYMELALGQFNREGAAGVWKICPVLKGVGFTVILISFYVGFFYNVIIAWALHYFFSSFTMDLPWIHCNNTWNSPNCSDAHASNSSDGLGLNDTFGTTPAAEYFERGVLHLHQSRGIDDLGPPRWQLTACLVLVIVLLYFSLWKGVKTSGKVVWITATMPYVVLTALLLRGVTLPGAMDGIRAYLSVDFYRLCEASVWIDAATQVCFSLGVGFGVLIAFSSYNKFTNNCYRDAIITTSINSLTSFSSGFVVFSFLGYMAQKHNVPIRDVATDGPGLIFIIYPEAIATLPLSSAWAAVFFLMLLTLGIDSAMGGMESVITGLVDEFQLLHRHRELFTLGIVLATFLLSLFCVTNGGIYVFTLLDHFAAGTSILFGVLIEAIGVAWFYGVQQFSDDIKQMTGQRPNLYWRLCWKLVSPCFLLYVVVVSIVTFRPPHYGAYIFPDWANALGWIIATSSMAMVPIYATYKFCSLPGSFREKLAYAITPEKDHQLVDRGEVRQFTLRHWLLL
Chain of serotonin transporter (Macaca fascicularis, UniProt A7KAX8) (A7KAX8 1-630): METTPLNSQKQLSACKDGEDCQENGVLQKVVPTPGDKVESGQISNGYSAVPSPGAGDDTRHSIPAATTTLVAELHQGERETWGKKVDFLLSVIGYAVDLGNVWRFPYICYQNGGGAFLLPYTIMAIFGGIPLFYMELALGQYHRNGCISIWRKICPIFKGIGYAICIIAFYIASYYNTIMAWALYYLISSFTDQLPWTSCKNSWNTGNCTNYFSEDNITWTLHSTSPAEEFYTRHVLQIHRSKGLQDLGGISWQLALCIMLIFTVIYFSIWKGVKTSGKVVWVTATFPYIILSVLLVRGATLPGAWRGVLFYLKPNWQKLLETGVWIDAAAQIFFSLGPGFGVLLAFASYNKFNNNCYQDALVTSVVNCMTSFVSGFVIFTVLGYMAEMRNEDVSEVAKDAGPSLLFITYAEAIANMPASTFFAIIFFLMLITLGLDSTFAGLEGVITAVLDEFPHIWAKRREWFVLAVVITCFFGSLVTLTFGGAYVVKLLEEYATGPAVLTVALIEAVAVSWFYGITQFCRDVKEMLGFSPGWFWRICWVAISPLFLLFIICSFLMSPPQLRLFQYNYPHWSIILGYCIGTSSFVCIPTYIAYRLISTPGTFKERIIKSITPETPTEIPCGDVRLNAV
T1 sequence (Q63380 1-617): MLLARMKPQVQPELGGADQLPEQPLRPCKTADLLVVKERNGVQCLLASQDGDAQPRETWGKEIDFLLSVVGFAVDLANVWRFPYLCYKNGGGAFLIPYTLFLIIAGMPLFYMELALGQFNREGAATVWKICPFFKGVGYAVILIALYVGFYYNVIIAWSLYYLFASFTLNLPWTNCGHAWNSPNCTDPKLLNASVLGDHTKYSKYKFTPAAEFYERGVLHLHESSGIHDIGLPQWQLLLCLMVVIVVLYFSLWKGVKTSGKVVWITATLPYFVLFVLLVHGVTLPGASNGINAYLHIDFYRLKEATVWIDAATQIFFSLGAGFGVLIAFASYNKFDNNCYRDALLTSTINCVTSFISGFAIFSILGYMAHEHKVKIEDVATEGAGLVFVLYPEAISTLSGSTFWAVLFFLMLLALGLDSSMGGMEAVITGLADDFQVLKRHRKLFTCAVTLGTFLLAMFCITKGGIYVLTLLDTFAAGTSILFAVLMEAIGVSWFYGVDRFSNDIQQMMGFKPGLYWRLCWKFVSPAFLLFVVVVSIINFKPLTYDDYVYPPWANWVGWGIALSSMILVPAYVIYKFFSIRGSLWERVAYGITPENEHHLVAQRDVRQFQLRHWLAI
T2 sequence (P31652 whole entry): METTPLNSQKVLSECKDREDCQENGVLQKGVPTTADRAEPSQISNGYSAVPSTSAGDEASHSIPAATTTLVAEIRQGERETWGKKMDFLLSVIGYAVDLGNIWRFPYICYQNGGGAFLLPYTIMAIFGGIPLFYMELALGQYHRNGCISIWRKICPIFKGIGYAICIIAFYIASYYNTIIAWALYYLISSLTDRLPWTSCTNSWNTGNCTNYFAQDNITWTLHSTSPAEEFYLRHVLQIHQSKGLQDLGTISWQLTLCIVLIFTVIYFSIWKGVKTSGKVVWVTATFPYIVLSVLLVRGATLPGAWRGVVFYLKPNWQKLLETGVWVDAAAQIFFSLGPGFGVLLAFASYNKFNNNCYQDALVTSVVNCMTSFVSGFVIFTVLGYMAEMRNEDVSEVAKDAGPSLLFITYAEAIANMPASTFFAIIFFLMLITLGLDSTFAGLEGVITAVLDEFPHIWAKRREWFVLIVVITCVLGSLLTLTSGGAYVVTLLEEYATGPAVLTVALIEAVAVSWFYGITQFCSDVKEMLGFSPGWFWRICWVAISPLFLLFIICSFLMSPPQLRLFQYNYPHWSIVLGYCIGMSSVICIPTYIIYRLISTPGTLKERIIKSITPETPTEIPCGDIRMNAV

For COC(=O)[C@H]1[C@@H](c2ccc(I)cc2)C[C@@H]2CC[C@H]1N2C [β-CIT, 2β-carbomethoxy-3β-(4' iodophenyl)-tropane, reference compound], the Ki ([1]; [^3 H]GBR) is given as 27 ± 2 nM, the “Selectivity 5-HT/DA, Ki(5-HT):Ki(DA)” value [1] is given as 1.11 and the Ki [2] is given as 1.08 ± 0.6 nM. For the same compound, the Ki [3] was 2.53 ± 0.02 nM, the “non-specific fixation in the striatum determined after saturation with GBR 12909” value ([4]; 2 hours) was about 70% and the “fixation in the striatum prevented/inhibited by preinjection of GBR 12909” value [4] was 31%. For the same compound, the Ki [5] was 80 ± 28 nM, the “fixation in the frontal cortex compared with the compound of the invention” value ([6]; frontal cortex, rich in serotonin transporter sites, 2 hours, words) was “much higher than that of the compound of the invention” and the “inhibition of fixation in the frontal cortex through a preinjection of paroxetine” value ([6]; frontal cortex, paroxetine 5 mg/kg i.v. 30 min before, 2 hours) was 55%. For the same compound, the “specificity for the dopamine transporter compared with the serotonin transporter in vivo” value ([6]; words) was “binds to both these transporters”, the Ki [7] was 30 ± 2 nM and the “time at which a specific image of the central grey nuclei starts to be produced” value [8] was over 20 h.

For COC(=O)[C@H]1[C@@H](c2ccc(C)cc2)C[C@@H]2CC[C@H]1N2C/C=C/[125I] [Example 1, 2β-carbomethoxy-3β-(p-methylphenyl)-8-(3-[^125 I]iodoprop-2E-enyl)nortropane], the “specificity relative to IPT” value ([1]; Ki(5-HT)/Ki(DA) of PE21 vs Kd(5-HT)/Kd(DA) of IPT) was 5 times, the “Ki ratio DA (PE21)/DA (β-CIT)” value ([1]; [^3 H]GBR) was 0.63 and the Ki ([1]; [^3 H]GBR) was 17 ± 7 nM. The “Selectivity 5-HT/DA, Ki(5-HT):Ki(DA)” value [1] was 29.4, the “better affinity for dopamine transporter relative to iodoaltropane” value ([1]; from Ki ratios to β-CIT) was 10 times and the “affinity relative to IPT” value ([9]; Kd of PE21 vs Kd of IPT (document 11)) was 2.5 times. The Kd ([9]; [^125 I]PE21) was 0.09 ± 0.01 nM, the tissue uptake at 0.5 h [10, 18] was 0.1 %ID/g and the tissue uptake at 1 h [10, 18] was 0.055 %ID/g. For the same compound, the tissue uptake at 2 h [10, 18] was 0.038 %ID/g, the tissue uptake at 4 h [10, 18] was 0.021 %ID/g and the tissue uptake at 0.5 h [10, 19] was 0.124 %ID/g. The tissue uptake at 1 h [10, 19] was 0.07 %ID/g, the tissue uptake at 2 h [10, 19] was 0.039 %ID/g and the tissue uptake at 4 h [10, 19] was 0.018 %ID/g. The tissue uptake at 0.5 h [10, 20] was 1.06 %ID/g, the tissue uptake at 1 h [10, 20] was 0.537 %ID/g and the tissue uptake at 2 h [10, 20] was 0.272 %ID/g. The tissue uptake at 4 h [10, 20] was 0.074 %ID/g, the “accumulation in the striatum” value ([10]; words) was “accumulates in preferential manner in the striatum” and the “striatum/frontal cortex ratio, lesion side” value ([11]; 6-OHDA lesion side) was 0.86±0.10. The “striatum/frontal cortex ratio, intact side” value ([11]; intact side) was 7.20±0.91, the “non-specific fixation in the striatum determined after saturation with GBR 12909” value ([4]; 2 hours) was “approximately 25%” and the “specificity for the dopamine transporter in the striatum at early times” value ([4]; 2 hours, words) was “very strong specificity for the dopamine transporter in the striatum”. For the same compound, the “fixation in the striatum prevented/inhibited by preinjection of GBR 12909” value [4] was 74%, the Ki ([5]; [^3 H]nisoxetine, read-out: Affinity: Ki (nM) Nor-adrenaline) was over 100 nM and the “specificity for the dopamine transporter compared with the serotonin transporter in vivo” value ([6]; words) was “very strong specificity for the dopamine transporter compared with the serotonin transporter”. For the same compound, the Ki [7] was 500 ± 80 nM and the “binding at the central grey nuclei” value [12] was “binds itself in specific manner at the central grey nuclei”.

In the case of COC(=O)[C@H]1[C@@H](c2ccc(Cl)cc2)C[C@@H]2CC[C@H]1N2CC=CI [IPT], the Kd [13] is listed as 0.25 ± 0.02 nM, the Kd [14] is listed as 1.2 ± 0.02 nM and the “specificity Kd(5-HT)/Kd(DA)” value [15] is listed as “approximately 5”.

In the case of COC(=O)[C@H]1[C@@H](c2ccc(F)cc2)C[C@@H]2CC[C@H]1N2C/C=C/I [Iodoaltropane], the Ki [2] is given as 6.62 ± 0.78 nM, the Ki [3] is given as 182 ± 41.8 nM and the “Ki ratio DA (iodoaltropane)/DA (β-CIT)” value [16] is given as 6.

In the case of C(=Cc1ccccc1)CN1CCN(CCOC(c2ccccc2)c2ccccc2)CC1 [GBR 12783], the Kd [17] is listed as 1.6 nM.
